Series [1] concerns RSV A long virus strain. The format is cell-based. The protocol:
In this embodiment, an RSV-A long virus strain was used as an infection virus in the present disclosure. The anti-RSV activity of the synthesized polypeptide was determined through CPE detection.
The inhibitory activity of the compounds of Table 1-1-Table 1-5, positive polypeptide in Table 1-11, and positive control T-118 against the RSV-A long virus strain was detected.
(§1) Human Epithelial Pharyngeal Carcinoma Cells (HEp-2) were from the American Type Culture Collection (ATCC), with a catalog number CCL-23. The cells were cultured in a DMEM culture solution in which 10% fetal bovine serum, 1% sodium pyruvate, 1% nonessential amino acids, 2 mM glutamine, 100 U/mL penicillin, and 100 μg/mL streptomycin were added. The RSV A long virus strain was from the ATCC, with a catalog number VR-26.
This study used a plaque reduction experiment to detect the in-vitro activity of a test sample against the RSV A long virus strain. The test sample and a control compound were tested at 8 concentrations in duplicated wells. The HEp-2 cells were digested with trypsin and then diluted to a concentration of 300,000 cells per milliliter by using an experimental culture solution. The diluted cells were added to a 96-well cell test board, with 100 μL per well, corresponding to 30000 cells per well. The cells were cultured overnight in a 37° C. incubator with 5% CO2. On the second day, the test sample was diluted in an experimental culture medium at a fold ratio. The sample diluted at a fold ratio and an equal volume of virus (100 PFU per well) were well mixed and incubated at 37° C. in 5% CO2 for 1 h. Then, the culture solution in the 96-well cell test board was discarded, the sample virus mixed solution (200 μL) was added to the 96-well cell culture plate, and incubated at 37° C. in 5% CO2 for 2 hours. After 2 h, the sample virus mixed solution was discarded, and 200 μL of maintenance culture medium containing 0.8% CMC and the corresponding concentration of the test sample was added. A cell control (cells, without compound treatment or viral infection) and a viral control (cell infection virus, without compound treatment) were set. The cells were cultured for 1 day in the 37° C. incubator with 5% CO2. One day after viral infection, the culture medium was discarded, the cells were fixed with 4% paraformaldehyde, and then permeabilization was performed with 0.5% Triton X-100. After the plate was washed with DPBS, an RSV-specific antibody (RSV antibody, diluted 1:3000) was added and incubated at 37° C. for 1 h. Then, a secondary antibody (donkey anti-goat IgG, diluted 1:500) and incubated at 37° C. for 1 h. The secondary antibody was discarded, a TrueBlue solution was added, dyeing was performed for 10 min; and the plate was washed with running water and then air-dried, and the number of spots in each well was counted by using a microplate imaging counter. Raw data was used for calculating the antiviral activity of the samples.
(§2) The raw data for plaque counts and cell viability tests were used for analyzing the antiviral activity and cytotoxicity of the test samples, respectively. A calculation formula was shown as follows.
% inhibition rate=100−(sample value-cell control average value)/(virus control average value-cell control average value)×100%
(§3) Non-linear fitting analysis was performed on the inhibition rate of the sample by using GraphPad Prism (version 10), so as to calculate the IC50 and CC50 values for the sample.
IC50: in an in-vitro antiviral activity experiment, IC50 represented an inhibition ability indicator of a compound to be tested against the Hep-2 cells infected by the RSV A long virus strain.

Series [2] can be described thus: Cytotoxicity test in HEp-2 cells (CCK8 cell viability). The format is cell-based. The note with it: human. The method, then: as §1
A cytotoxicity test and an antiviral test were performed in parallel. The HEp-2 cells were inoculated in the microplate at a density of 30,000 cells per well, and cultured overnight in the 37° C. incubator with 5% CO2. On the next day, the diluted test sample was added. The cell control (cells, without compound treatment) and a culture solution control (culture solution only, without cell or compound treatment) were set. A final concentration of DMSO in the culture solution was 0.5%. The cells were cultured for 1 day in the 37° C. incubator with 5% CO2. Cell viability was detected by using a cell viability detection kit CCK8.
as §2
cell survival rate=(sample value-culture medium control average value)/(cell control average value-culture medium control average value)×100
as §3
CC50: in the in-vitro antiviral activity experiment, CC50 was used to measure the toxicity of the compound to be tested to the Hep-2 cells. To be precise, when the compound to be tested was at a specific concentration, 50% of the Hep-2 cells was caused to die, and this concentration was defined as the CC50. A fitting formula was log (inhibitor) vs. response-Variable slope (four parameters).

The mark [3] stands for this setting: HEp-2 cells, CCK8, 1 day, read-out: CC50.

Like-named read-outs stand apart in the source and are kept apart here. Where a SMILES comes first, the peptide text is derived from it. [ ]: non-standard residue; d: D form. The star is where a group is joined. ξ: configuration not given here. Succinyl(4-O-cholesteryl) = CC(C)CCC[C@@H](C)[C@H]1CC[C@H]2[C@@H]3CC=C4C[C@@H](OC(=O)CCC(=O)*)CC[C@]4(C)[C@H]3CC[C@]12C; ξD = NC(CC(=O)O)C(=O)O

By IC50 is commonly meant the concentration needed to halve the response being measured. For orientation: CC50 means the concentration at which the toxic effect on the cells reaches its halfway point. Consider `CC[C@H](C)[C@H](NC(=O)[C@H](CO)NC(=O)[C@H](C)NC(=O)[C@H](CC(=O)O)NC(=O)[C@H](Cc1ccccc1)NC(C)=O)C(=O)N[C@@H](CCC(=O)O)C(=O)N[C@@H](CCC(=O)O)C(=O)N[C@H](C(=O)N[C@@H](CC(N)=O)C(=O)N[C@@H](CCCNC(=N)N)C(=O)N[C@@H](CCCNC(=N)N)C(=O)N[C@H](C(=O)N[C@@H](CCC(=O)O)C(=O)N[C@@H](CCC(=O)O)C(=O)N[C@@H](CO)C(=O)N[C@@H](CC(C)C)C(=O)N[C@@H](CCCNC(=N)N)C(=O)N[C@@H](CCCNC(=N)N)C(=O)N[C@H](C(=O)N[C@@H](CCC(=O)O)C(=O)N[C@@H](CCC(=O)O)C(=O)N[C@@H](CO)C(=O)N[C@@H](CC(=O)O)C(=O)N[C@@H](CCCNC(=N)N)C(=O)N[C@@H](CCCNC(=N)N)C(=O)N[C@@H](CC(C)C)C(=O)N[C@@H](CCC(=O)O)C(=O)N[C@H](C(=O)N[C@@H](CC(N)=O)C(=O)N[C@@H](CCCCN)C(=O)N[C@@H](CCCCN)C(=O)N[C@@H](C)C(N)=O)C(C)C)[C@@H](C)CC)[C@@H](C)CC)C(C)C` [Compound 1] (Ac-FDASIEEVNRRIEESLRRIEESDRRLEVNKKA-NH2), for which half-maximal inhibition in series [1] (IC50) required 1.36 µM. In series [2], this compound registered a CC50 at 1 day above 8 µM.
On to `CC[C@H](C)[C@H](NC(=O)[C@H](CCCCN)NC(=O)[C@H](CCCCN)NC(=O)[C@H](CC(C)C)NC(=O)[C@@H](NC(=O)[C@H](CCC(=O)O)NC(=O)[C@H](CCC(=O)O)NC(=O)[C@@H](NC(=O)[C@H](CCCCN)NC(=O)[C@H](CCC(=O)O)NC(=O)[C@H](CC(N)=O)NC(=O)[C@@H](NC(=O)[C@H](CCC(=O)O)NC(=O)[C@H](CC(N)=O)NC(=O)[C@@H](NC(=O)[C@H](CCCCN)NC(=O)[C@H](CCC(N)=O)NC(=O)[C@H](CC(N)=O)NC(=O)[C@H](Cc1ccccc1)NC(=O)[C@H](CCC(=O)O)NC(=O)[C@H](CC(=O)O)NC(=O)[C@H](CC(=O)O)NC(C)=O)[C@@H](C)CC)C(C)C)[C@@H](C)CC)[C@@H](C)CC)C(=O)N[C@@H](CCC(=O)O)C(=O)N[C@@H](CCC(=O)O)C(=O)N[C@@H](CO)C(=O)N[C@@H](CC(=O)O)C(=O)N[C@@H](CCCNC(=N)N)C(=O)N[C@@H](CCCCN)C(=O)N[C@@H](CC(C)C)C(=O)N[C@@H](CCC(=O)O)C(=O)N[C@@H](CCC(=O)O)C(=O)N[C@@H](CO)C(=O)N[C@@H](CC(=O)O)C(=O)N[C@@H](CCCCN)C(=O)N[C@@H](CCCCN)C(=O)N[C@@H](C)C(N)=O` [Compound 2] (Ac-DDEFNQKINEVNEKIEEILKKIEESDRKLEESDKKA-NH2), for which the IC50 in series [1] was above 8 µM. The same compound yielded a CC50 at 1 day in series [2] above 8 µM.
As for `CC[C@H](C)[C@H](NC(=O)[C@H](CCCCN)NC(=O)[C@H](CCCCN)NC(=O)[C@H](CC(C)C)NC(=O)[C@H](CO)NC(=O)[C@H](CCC(=O)O)NC(=O)[C@H](CCC(=O)O)NC(=O)[C@@H](NC(=O)[C@H](CCCCN)NC(=O)[C@H](CCCCN)NC(=O)[C@H](CC(N)=O)NC(=O)[C@@H](NC(=O)[C@H](CCC(=O)O)NC(=O)[C@H](CCC(=O)O)NC(=O)[C@@H](NC(=O)[C@H](CCCCN)NC(=O)[C@H](CCCCN)NC(=O)[C@H](CCCCN)NC(=O)[C@H](CC(=O)O)NC(=O)[C@H](Cc1ccccc1)NC(=O)[C@H](CCC(=O)O)NC(=O)[C@H](CC(=O)O)NC(C)=O)[C@@H](C)CC)C(C)C)[C@@H](C)CC)C(=O)N[C@@H](CCC(=O)O)C(=O)N[C@@H](CCC(=O)O)C(=O)N[C@@H](CO)C(=O)N[C@@H](CC(=O)O)C(=O)N[C@@H](CCCCN)C(=O)N[C@@H](CCCCN)C(=O)N[C@@H](CC(C)C)C(=O)N[C@@H](CCC(=O)O)C(=O)N[C@@H](CCC(=O)O)C(=O)N[C@H](C(N)=O)C(C)C` [Compound 3] (Ac-DEFDKKKIEEVNKKIEESLKKIEESDKKLEEV-NH2), the IC50 in series [1] (RSV A long virus strain, HEp-2 cells, plaque reduction, 1 day, read-out: IC50) worked out at 4.43 µM. Also, the CC50 at 1 day in series [2] (setting [3]) was above 8 µM.
Consider `CC[C@H](C)[C@H](NC(=O)[C@H](CCCCN)NC(=O)[C@H](CCCCN)NC(=O)[C@H](CC(C)C)NC(=O)[C@H](CO)NC(=O)[C@H](CCC(=O)O)NC(=O)[C@H](CCC(=O)O)NC(=O)[C@@H](NC(=O)[C@H](CCCCN)NC(=O)[C@H](CCCCN)NC(=O)[C@H](CC(N)=O)NC(=O)[C@@H](NC(=O)[C@H](CCC(=O)O)NC(=O)[C@H](CCC(=O)O)NC(=O)[C@@H](NC(=O)[C@H](CCCCN)NC(=O)[C@H](CCCCN)NC(=O)[C@H](CCCCN)NC(=O)[C@H](CC(=O)O)NC(=O)[C@H](Cc1ccccc1)NC(=O)[C@H](CCC(=O)O)NC(=O)C(CC(=O)O)NC(C)=O)[C@@H](C)CC)C(C)C)[C@@H](C)CC)C(=O)N[C@@H](CCC(=O)O)C(=O)N[C@@H](CCC(=O)O)C(=O)N[C@@H](CO)C(=O)N[C@@H](CC(=O)O)C(=O)N[C@@H](CCCCN)C(=O)N[C@@H](CCCCN)C(=O)N[C@@H](CC(C)C)C(=O)N[C@@H](CCC(=O)O)C(=O)N[C@@H](CCC(=O)O)C(=O)N[C@H](C(=O)NCC(=O)N[C@@H](CO)C(=O)NCC(=O)N[C@@H](CO)C(=O)NCC(=O)N[C@@H](CCCCNC(=O)CCC(=O)O[C@H]1CC[C@@]2(C)C(=CC[C@H]3[C@@H]4CC[C@H]([C@H](C)CCCC(C)C)[C@@]4(C)CC[C@@H]32)C1)C(N)=O)C(C)C` (some centres unmarked) [Compound 18] (Ac-[ξD]EFDKKKIEEVNKKIEESLKKIEESDKKLEEVGSGSGK(Succinyl(4-O-cholesteryl))-NH2), for which the CC50 at 1 day in series [2] (setting [3]) was determined as 6.4 µM.
For `CC[C@H](C)[C@H](NC(=O)[C@H](CCCCN)NC(=O)[C@H](CCCCN)NC(=O)[C@H](CC(C)C)NC(=O)[C@H](CO)NC(=O)[C@H](CCC(=O)O)NC(=O)[C@H](CCC(=O)O)NC(=O)[C@@H](NC(=O)[C@H](CCCCN)NC(=O)[C@H](CCCCN)NC(=O)[C@H](CC(N)=O)NC(=O)[C@@H](NC(=O)[C@H](CCC(=O)O)NC(=O)[C@H](CCC(=O)O)NC(=O)[C@@H](NC(=O)[C@H](CCCCN)NC(=O)[C@H](CCCCN)NC(=O)[C@H](CCCCN)NC(=O)[C@H](CC(=O)O)NC(=O)[C@H](Cc1ccccc1)NC(=O)[C@H](CCC(=O)O)NC(=O)[C@H](CC(=O)O)NC(C)=O)[C@@H](C)CC)C(C)C)[C@@H](C)CC)C(=O)N[C@@H](CCC(=O)O)C(=O)N[C@@H](CCC(=O)O)C(=O)N[C@@H](CO)C(=O)N[C@@H](CC(=O)O)C(=O)N[C@@H](CCCCN)C(=O)N[C@@H](CCCCN)C(=O)N[C@@H](CC(C)C)C(=O)N[C@@H](CCC(=O)O)C(=O)N[C@@H](CCC(=O)O)C(=O)N[C@H](C(=O)N[C@@H](CCC(=O)O)C(=O)N[C@@H](C)C(=O)N[C@@H](C)C(=O)N[C@@H](C)C(=O)N[C@@H](CCCCN)C(=O)N[C@@H](CCCCNC(=O)CCC(=O)O[C@H]1CC[C@@]2(C)C(=CC[C@H]3[C@@H]4CC[C@H]([C@H](C)CCCC(C)C)[C@@]4(C)CC[C@@H]32)C1)C(N)=O)C(C)C` [Compound 22] (Ac-DEFDKKKIEEVNKKIEESLKKIEESDKKLEEVEAAAKK(Succinyl(4-O-cholesteryl))-NH2), in series [2] (setting [3]), the half-maximal cytotoxic concentration (CC50) at 1 day was 3.7 µM.

The values are drawn from patent US20260250325A1, “Antiviral Polypeptide Membrane Fusion Inhibitor, and Preparation Method and Application Thereof” (priority 2025, published 2026).
